This note sets out measurements from the supplement of paper PMC12076712.

Holding throughout (experiment): pIC50, kinobeads binding competition
Experiment [1] deals with T1, UniProt Q15831.
T1 sequence (whole entry): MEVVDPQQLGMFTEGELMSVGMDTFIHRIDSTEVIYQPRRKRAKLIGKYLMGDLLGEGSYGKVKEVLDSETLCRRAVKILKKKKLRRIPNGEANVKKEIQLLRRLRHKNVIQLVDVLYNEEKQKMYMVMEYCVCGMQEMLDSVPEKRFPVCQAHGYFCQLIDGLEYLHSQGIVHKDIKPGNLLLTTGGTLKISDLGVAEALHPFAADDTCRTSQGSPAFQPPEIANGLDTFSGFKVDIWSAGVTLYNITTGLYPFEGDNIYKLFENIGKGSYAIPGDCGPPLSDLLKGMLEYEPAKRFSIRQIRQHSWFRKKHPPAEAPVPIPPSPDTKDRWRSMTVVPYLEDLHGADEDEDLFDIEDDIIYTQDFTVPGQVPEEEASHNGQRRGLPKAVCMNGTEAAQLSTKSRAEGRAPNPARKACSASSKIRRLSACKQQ
The gist of the method:
(§1)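 To obtain pIC50, fold changes versus vehicle were fitted to logistic dose-response curves (R drc package) across biological duplicates. Protein binding to Kinobeads was quantified by TMT10 LC-MS/MS of digested bead-bound proteins. Treatments used nine concentrations with a top of 30 μM, applied to live Jurkat cells in 1:4 steps for 60 min at 37 °C before lysis, or to Jurkat lysate or a 1:1:1:1 HEK293/K-562/HepG2/placenta lysate mix in 1:5 steps for 60 min at 4 °C.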

Experiment [2] deals with MAP4K5 (UniProt Q9Y4K4). Summed up: as §1
Sequence of MAP4K5 (Q9Y4K4 whole entry, looked up): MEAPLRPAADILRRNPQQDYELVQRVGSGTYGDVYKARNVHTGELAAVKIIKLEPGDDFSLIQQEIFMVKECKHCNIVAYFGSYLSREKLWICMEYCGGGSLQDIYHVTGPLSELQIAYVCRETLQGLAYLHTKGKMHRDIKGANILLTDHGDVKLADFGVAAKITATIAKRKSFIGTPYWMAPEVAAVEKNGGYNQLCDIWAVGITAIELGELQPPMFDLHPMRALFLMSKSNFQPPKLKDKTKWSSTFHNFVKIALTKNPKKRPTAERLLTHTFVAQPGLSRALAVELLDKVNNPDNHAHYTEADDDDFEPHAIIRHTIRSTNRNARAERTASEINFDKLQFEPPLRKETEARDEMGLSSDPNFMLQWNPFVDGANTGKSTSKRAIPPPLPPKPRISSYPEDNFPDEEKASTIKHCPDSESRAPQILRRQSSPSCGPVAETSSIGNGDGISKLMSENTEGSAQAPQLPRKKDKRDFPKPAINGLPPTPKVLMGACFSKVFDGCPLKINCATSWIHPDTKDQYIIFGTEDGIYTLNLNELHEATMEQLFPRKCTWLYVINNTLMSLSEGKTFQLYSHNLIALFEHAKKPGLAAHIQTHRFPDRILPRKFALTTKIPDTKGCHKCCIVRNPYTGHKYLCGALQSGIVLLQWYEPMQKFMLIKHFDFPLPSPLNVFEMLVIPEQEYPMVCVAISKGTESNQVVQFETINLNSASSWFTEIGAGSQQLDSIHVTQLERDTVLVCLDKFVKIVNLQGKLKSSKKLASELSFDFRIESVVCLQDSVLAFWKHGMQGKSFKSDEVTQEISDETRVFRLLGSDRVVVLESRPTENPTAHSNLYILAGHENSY
The target of experiment [3] is INSR (UniProt P06213). The gist of the method: as §1
Sequence of INSR (P06213 whole entry): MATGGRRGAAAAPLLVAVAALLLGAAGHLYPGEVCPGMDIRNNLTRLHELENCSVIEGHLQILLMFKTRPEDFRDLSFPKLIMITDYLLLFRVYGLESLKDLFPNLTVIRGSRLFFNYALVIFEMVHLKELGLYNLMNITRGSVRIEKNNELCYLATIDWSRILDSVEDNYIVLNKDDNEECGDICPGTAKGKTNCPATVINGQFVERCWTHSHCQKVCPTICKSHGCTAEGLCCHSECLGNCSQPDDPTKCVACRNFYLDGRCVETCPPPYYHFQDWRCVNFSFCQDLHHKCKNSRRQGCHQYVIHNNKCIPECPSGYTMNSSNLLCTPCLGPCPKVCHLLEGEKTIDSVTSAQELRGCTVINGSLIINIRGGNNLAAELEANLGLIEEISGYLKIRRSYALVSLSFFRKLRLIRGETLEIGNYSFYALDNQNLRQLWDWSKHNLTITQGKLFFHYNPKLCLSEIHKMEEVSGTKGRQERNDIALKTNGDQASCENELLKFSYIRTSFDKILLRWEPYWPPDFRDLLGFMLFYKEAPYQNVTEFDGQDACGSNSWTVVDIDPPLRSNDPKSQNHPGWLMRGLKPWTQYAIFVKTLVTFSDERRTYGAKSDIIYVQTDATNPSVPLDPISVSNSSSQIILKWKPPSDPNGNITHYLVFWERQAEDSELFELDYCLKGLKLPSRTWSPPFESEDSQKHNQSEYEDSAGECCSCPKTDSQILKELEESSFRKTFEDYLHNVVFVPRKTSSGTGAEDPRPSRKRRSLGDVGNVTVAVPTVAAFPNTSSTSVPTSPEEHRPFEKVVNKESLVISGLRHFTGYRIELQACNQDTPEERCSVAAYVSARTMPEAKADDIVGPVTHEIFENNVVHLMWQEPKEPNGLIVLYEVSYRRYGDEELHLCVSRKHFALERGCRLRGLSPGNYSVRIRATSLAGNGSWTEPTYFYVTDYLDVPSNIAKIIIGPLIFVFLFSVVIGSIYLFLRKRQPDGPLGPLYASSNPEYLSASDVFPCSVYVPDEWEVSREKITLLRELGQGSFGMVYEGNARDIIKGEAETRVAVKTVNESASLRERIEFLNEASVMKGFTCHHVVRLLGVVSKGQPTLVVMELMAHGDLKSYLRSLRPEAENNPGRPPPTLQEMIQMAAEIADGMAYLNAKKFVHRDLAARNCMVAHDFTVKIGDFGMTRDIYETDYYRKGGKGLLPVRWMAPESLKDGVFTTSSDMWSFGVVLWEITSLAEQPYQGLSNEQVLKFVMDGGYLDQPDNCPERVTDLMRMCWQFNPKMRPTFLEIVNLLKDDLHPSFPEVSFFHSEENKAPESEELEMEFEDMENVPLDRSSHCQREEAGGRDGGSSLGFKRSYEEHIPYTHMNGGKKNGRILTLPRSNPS
For experiment [4], the target named is T2, EIF2AK3 (UniProt Q9NZJ5).
T2 sequence (whole entry): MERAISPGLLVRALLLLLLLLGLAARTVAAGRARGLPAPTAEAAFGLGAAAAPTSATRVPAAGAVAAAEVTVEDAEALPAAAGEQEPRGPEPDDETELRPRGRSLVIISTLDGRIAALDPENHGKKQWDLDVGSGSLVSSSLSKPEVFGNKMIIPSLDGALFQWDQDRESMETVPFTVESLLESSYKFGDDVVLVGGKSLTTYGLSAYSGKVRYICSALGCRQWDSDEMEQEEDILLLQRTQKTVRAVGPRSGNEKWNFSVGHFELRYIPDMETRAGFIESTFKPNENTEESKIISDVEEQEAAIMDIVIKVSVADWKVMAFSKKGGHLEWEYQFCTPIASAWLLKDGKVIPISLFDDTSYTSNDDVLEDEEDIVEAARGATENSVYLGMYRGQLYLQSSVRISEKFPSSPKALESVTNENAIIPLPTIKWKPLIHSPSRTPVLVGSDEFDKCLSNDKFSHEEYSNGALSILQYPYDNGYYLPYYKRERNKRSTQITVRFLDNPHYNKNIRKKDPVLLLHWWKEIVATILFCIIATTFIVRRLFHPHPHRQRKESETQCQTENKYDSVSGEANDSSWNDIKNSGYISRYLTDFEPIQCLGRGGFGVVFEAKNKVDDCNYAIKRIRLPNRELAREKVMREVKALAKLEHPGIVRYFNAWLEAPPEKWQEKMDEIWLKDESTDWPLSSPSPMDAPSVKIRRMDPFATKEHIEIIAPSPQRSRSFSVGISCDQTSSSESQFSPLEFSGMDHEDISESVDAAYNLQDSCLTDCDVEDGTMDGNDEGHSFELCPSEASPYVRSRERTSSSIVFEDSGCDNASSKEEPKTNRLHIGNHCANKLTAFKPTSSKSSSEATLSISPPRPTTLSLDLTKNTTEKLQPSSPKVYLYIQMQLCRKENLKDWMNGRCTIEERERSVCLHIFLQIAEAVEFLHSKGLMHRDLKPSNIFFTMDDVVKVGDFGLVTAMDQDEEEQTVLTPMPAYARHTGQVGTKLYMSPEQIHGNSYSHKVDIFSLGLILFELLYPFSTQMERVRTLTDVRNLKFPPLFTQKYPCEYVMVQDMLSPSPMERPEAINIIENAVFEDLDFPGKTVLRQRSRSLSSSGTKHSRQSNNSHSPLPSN
As to conditions: cell material: Lysate mix. Summed up:
as §1

The target in experiment [5] is HIPK1 (UniProt Q86Z02). Summed up:
as §1

In experiment [6] the target is T3, UniProt O14757.
T3 sequence (whole entry): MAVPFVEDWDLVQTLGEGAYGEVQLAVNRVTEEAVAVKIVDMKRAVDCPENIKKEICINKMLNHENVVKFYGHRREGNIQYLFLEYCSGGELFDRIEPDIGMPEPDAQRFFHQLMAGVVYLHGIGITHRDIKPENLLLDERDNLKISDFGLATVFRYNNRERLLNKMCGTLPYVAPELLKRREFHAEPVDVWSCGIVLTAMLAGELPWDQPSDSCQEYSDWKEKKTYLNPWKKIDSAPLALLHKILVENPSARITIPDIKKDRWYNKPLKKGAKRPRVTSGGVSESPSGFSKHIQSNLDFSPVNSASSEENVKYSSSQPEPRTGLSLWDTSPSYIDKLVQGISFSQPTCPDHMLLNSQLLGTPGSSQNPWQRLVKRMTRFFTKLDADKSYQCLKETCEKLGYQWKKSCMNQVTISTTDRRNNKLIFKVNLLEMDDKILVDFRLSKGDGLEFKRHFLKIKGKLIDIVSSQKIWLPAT
Summed up:
as §1

Experiment [7] concerns the target T4, UniProt Q8TBX8.
T4 sequence (whole entry): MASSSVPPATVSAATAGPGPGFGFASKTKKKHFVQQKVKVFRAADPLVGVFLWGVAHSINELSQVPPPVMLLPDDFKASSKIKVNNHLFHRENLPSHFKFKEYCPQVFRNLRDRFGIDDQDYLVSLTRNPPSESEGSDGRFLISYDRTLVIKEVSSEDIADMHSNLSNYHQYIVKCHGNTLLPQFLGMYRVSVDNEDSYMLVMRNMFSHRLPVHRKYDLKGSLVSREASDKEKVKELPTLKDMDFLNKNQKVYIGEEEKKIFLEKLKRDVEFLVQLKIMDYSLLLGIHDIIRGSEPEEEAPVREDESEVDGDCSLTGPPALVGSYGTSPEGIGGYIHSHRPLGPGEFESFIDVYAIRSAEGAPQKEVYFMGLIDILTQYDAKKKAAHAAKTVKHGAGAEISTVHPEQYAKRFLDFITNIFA
The gist of the method:
as §1

In experiment [8] the target is UniProt O75582. The gist of the method:
as §1

For experiment [9], the target named is EIF2AK4 (UniProt Q9P2K8). Summed up: as §1
Sequence of EIF2AK4 (Q9P2K8 whole entry): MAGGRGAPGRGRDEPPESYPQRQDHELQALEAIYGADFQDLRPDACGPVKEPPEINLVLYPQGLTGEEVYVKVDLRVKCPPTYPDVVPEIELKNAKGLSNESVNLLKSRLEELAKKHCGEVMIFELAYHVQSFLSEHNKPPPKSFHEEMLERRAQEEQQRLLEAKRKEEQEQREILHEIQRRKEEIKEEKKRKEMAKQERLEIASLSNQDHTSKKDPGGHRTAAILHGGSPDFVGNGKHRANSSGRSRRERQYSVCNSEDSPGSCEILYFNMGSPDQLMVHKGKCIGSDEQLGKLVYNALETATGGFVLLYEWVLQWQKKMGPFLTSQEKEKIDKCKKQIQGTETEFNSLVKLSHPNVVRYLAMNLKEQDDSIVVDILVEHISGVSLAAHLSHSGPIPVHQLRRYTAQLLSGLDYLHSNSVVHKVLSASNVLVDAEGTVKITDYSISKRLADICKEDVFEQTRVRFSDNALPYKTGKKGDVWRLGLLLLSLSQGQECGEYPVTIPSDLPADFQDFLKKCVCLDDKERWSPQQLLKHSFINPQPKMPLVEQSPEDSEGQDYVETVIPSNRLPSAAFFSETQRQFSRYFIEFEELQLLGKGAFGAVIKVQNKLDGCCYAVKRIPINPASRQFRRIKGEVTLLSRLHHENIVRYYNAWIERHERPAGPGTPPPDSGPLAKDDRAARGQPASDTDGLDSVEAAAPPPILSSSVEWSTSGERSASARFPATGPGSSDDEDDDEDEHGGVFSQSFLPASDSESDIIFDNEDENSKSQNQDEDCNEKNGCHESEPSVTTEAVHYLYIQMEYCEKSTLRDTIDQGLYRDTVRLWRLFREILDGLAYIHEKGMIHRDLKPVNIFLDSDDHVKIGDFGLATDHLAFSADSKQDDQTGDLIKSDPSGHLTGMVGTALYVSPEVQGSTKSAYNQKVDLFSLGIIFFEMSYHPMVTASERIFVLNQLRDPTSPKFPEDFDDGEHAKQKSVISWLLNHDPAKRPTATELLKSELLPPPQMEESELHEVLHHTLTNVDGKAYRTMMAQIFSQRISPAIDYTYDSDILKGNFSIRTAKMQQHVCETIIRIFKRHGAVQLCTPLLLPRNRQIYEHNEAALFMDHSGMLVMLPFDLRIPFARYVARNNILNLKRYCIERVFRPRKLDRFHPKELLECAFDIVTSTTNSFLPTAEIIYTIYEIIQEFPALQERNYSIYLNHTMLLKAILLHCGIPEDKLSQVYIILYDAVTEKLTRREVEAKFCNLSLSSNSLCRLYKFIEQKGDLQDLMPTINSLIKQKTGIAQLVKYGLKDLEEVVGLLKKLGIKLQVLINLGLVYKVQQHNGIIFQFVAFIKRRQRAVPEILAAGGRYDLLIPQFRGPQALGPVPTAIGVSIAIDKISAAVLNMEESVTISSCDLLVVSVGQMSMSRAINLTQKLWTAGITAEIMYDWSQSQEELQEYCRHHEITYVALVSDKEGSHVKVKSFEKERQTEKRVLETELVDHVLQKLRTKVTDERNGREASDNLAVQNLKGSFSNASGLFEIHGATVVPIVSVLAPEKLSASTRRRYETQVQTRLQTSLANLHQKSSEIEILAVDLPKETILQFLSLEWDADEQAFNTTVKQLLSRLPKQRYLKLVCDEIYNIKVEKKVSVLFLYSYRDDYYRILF

Sequence of HIPK1 (Q86Z02 whole entry, looked up): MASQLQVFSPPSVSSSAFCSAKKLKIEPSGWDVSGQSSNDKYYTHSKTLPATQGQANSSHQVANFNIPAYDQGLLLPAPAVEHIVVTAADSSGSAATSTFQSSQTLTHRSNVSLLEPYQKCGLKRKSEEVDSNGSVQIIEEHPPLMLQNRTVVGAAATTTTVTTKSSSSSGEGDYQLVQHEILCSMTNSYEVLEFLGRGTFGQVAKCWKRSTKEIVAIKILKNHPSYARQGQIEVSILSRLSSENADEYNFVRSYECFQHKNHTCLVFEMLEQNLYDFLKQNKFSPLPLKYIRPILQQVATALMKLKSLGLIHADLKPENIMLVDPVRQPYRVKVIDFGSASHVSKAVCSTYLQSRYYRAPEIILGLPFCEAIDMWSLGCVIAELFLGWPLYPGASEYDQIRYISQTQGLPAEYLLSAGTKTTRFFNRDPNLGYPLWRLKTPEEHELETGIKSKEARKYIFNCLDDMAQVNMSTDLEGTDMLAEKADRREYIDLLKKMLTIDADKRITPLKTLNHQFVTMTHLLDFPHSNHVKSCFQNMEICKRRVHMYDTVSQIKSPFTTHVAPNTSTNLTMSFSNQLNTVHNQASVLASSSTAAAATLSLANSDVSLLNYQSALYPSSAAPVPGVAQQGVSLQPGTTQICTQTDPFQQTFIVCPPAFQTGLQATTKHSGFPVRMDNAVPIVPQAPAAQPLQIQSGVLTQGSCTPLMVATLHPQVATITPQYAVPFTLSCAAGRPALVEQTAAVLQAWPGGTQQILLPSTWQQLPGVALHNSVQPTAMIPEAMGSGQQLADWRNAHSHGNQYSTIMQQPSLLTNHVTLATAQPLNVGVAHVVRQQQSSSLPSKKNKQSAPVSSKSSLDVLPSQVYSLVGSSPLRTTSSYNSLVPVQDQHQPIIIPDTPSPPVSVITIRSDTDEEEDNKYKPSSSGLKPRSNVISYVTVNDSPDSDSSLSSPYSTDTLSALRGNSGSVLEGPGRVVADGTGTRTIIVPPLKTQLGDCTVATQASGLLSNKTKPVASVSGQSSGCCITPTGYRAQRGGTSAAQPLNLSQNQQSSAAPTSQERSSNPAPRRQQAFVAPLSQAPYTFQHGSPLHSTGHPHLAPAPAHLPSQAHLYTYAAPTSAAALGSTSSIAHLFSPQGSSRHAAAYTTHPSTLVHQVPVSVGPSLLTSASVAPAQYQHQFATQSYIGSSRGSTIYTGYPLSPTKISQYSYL

As usually defined, the pIC50 is −log10 of the IC50, conventionally taken in molar units. A low value points to a high IC50. Consider `O=C(NCCNC(=O)c1cc(Nc2cc(C3CC3)[nH]n2)nc(N2CCN(Cc3ccc(S(=O)(=O)F)cc3)CC2)n1)OC1CC/C=C/CCC1` (stereo not drawn), for which the negative logarithm of the IC50 (pIC50) was less than 4.52 in [1] (cell material: Jurkat lysate); less than 4.52 in experiment [1] (cell material: Lysate mix); 5.8 in experiment [2] (cell material: Jurkat cells); less than 4.52 in experiment [2] (cell material: Jurkat lysate); less than 4.52 in experiment [2] (cell material: Lysate mix); less than 4.52 in experiment [3] (cell material: Jurkat cells). Also, the pIC50 in experiment [3] (cell material: Jurkat lysate) is less than 4.52; in experiment [3] (cell material: Lysate mix), less than 4.52; in [4] it was less than 4.52; in [5] (cell material: Jurkat cells), 5.3; in [5] (cell material: Jurkat lysate), less than 4.52; in experiment [5] (cell material: Lysate mix) it was less than 4.52. Further, the pIC50 was less than 4.52 in [6] (cell material: Jurkat cells); less than 4.52 in [6] (cell material: Jurkat lysate); less than 4.52 in experiment [6] (cell material: Lysate mix); less than 4.52 in [7] (cell material: Jurkat lysate); less than 4.52 in experiment [7] (cell material: Lysate mix); 5.6 in experiment [8] (cell material: Jurkat cells). The pIC50 in experiment [8] (cell material: Jurkat lysate) is less than 4.52; in experiment [8] (cell material: Lysate mix) it was less than 4.52; in experiment [9] (cell material: Jurkat cells) it was 5.62; in [9] (cell material: Jurkat lysate), less than 4.52; in experiment [9] (cell material: Lysate mix), less than 4.52.
For `Cc1cc(Nc2cc(C(=O)NCCNC(=O)OC3CC/C=C/CCC3)nc(N3CCN(Cc4ccc(S(=O)(=O)F)cc4)CC3)n2)n[nH]1` (stereo not drawn), the pIC50 in experiment [1] (cell material: Lysate mix), in [2] (cell material: Lysate mix), in experiment [3] (cell material: Lysate mix), in [4], in [5] (cell material: Lysate mix) and in [6] (cell material: Lysate mix) was less than 4.52 in each case. The pIC50 in experiment [7] (cell material: Lysate mix), in [8] (cell material: Lysate mix) and in experiment [9] (cell material: Lysate mix) was less than 4.52 throughout.
Turning to `CCNC(=O)c1cc(Nc2cc(C)[nH]n2)nc(N2CCN(Cc3ccc(S(=O)(=O)F)cc3)CC2)n1`, the pIC50 in [1] (cell material: Lysate mix) is 4.61; in experiment [2] (cell material: Lysate mix), 5.33; in experiment [3] (cell material: Lysate mix), less than 4.52; in experiment [4], less than 4.52; in [5] (cell material: Lysate mix), 4.78; in [6] (cell material: Lysate mix), less than 4.52. Further, the pIC50 is less than 4.52 in experiment [7] (cell material: Lysate mix), 4.83 in experiment [8] (cell material: Lysate mix) and 4.98 in experiment [9] (cell material: Lysate mix).
On to `C#CCNC(=O)c1cc(Nc2cc(C3CC3)[nH]n2)nc(N2CCN(Cc3ccc(S(=O)(=O)F)cc3)CC2)n1`, for which the pIC50 in experiment [1] (cell material: Jurkat lysate) was 5.81; in experiment [1] (cell material: Lysate mix) it was 6.42; in experiment [2] (cell material: Jurkat cells), 6.45; in experiment [2] (cell material: Jurkat lysate), 5.53; in experiment [2] (cell material: Lysate mix) it was 6.21; in experiment [3] (cell material: Jurkat cells) it was 4.82. For the same compound, the pIC50 is less than 4.52 in [3] (cell material: Jurkat lysate); less than 4.52 in experiment [3] (cell material: Lysate mix); less than 4.52 in experiment [4]; 6.08 in experiment [5] (cell material: Jurkat cells); 5.37 in experiment [5] (cell material: Jurkat lysate); 6 in [5] (cell material: Lysate mix). In addition, the pIC50 in [6] (cell material: Jurkat cells) was 5.16; in experiment [6] (cell material: Jurkat lysate), less than 4.52; in experiment [6] (cell material: Lysate mix) it was less than 4.52; in [7] (cell material: Jurkat cells), 5.4; in experiment [7] (cell material: Jurkat lysate) it was less than 4.52; in [7] (cell material: Lysate mix) it was less than 4.52. In addition, the pIC50 in [8] (cell material: Jurkat cells) was 6; in experiment [8] (cell material: Jurkat lysate) it was 4.7; in [8] (cell material: Lysate mix), 5.6; in experiment [9] (cell material: Jurkat cells) it was 6.08; in [9] (cell material: Jurkat lysate), 4.63; in experiment [9] (cell material: Lysate mix) it was 5.44.
Regarding `C#CCNC(=O)c1cc(Nc2cc(C)[nH]n2)nc(N2CCN(Cc3ccc(S(=O)(=O)F)cc3)CC2)n1`, the pIC50 was 4.78 in [1] (cell material: Lysate mix); 5.53 in experiment [2] (cell material: Lysate mix); less than 4.52 in experiment [3] (cell material: Lysate mix); less than 4.52 in experiment [4]; 5.06 in [5] (cell material: Lysate mix); less than 4.52 in [6] (cell material: Lysate mix). The results for the pIC50 in [7] (cell material: Lysate mix), in experiment [8] (cell material: Lysate mix) and in experiment [9] (cell material: Lysate mix) were less than 4.52, 5.11 and 5.15, respectively.
For the compound `CCNC(=O)c1cc(Nc2cc(C3CC3)[nH]n2)nc(N2CCN(Cc3ccc(S(=O)(=O)F)cc3)CC2)n1`, the pIC50 was 5.4 in experiment [1] (cell material: Lysate mix); 5.77 in [2] (cell material: Lysate mix); less than 4.52 in experiment [3] (cell material: Lysate mix); less than 4.52 in experiment [4]; 5.78 in [5] (cell material: Lysate mix); less than 4.52 in experiment [6] (cell material: Lysate mix). In addition, the pIC50 was less than 4.52 in [7] (cell material: Lysate mix), 5.35 in [8] (cell material: Lysate mix) and 5.35 in [9] (cell material: Lysate mix).
